{"source": "patent US5681966A", "about": "“Compounds and methods for the treatment of cardiovascular, inflammatory and immune disorders” (Cytomed, Inc., priority 1995, dated 1997)", "key": {"[1]": {"target": "T1, 5-lipoxygenase (Rattus norvegicus, UniProt P12527)", "T1 construct": "The supernatant solution (cytosol fraction) containing 5-lipoxygenase was stored; endogenous in cells; host or cells: RBL-1 rat basophilic leukemia cells, 105,000 x g supernatant (cytosol)", "T1 sequence (P12527 1-673)": "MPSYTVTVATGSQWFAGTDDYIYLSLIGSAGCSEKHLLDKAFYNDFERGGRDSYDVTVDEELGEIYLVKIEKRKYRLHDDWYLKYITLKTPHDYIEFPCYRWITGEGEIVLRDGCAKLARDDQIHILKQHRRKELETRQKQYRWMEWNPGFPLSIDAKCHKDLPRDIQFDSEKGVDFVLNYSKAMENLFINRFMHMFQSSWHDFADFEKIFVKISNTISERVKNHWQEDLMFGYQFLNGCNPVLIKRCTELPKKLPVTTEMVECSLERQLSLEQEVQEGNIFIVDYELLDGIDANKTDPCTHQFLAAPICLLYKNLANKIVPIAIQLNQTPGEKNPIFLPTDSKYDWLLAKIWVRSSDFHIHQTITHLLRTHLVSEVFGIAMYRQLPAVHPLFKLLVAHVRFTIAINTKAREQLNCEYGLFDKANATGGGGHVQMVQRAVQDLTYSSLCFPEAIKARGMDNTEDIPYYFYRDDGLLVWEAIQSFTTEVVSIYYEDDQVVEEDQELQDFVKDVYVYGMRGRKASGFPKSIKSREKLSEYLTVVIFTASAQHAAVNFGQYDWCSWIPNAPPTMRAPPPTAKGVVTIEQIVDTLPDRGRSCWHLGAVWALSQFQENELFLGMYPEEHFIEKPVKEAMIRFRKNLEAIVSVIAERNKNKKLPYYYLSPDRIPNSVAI", "test": "Inhibition of soluble 5-lipoxygenase in RBL-1 cell extract (cytosol 5-lipoxygenase of rat basophile leukemia cells; RBL)", "format": "biochemical", "settings": "for IC50: RBL-1 cell extract; for activity in 5-lipoxygenase assay: qualitative", "protocol": "Effect of Compounds on Cytosol 5-Lipoxygenase of Rat Basophile Leukemia Cells\nWashed rat RBL cells (4×108) were suspended in 20 ml of […] potassium phosphate buffer at pH 7.4 containing 10% ethylene glycol/1 mM EDTA (Buffer A). The cell suspension was sonicated at 20 KHz for 30 seconds, and the sonicate was centrifuged at 10,000 × g for 10 minutes, followed by further centrifugation at 105,000 × g for 1 hr. The supernatant solution (cytosol fraction) containing 5-lipoxygenase was stored at -70° C. Protein concentration was determined according to the procedure of Bradford (Bradford Dye Reagent) with bovine serum albumin as a standard.\nFor routine assay of 5-lipoxygenase the mixture contained 50 mM potassium phosphate buffer at pH 7.4, 2 mM CaCl2, 2 mM ATP, […] arachidonic acid (0.1 Ci) and enzyme ([…] of protein) in a final volume of […]. The reaction was carried out at 24° C. for 3 minutes. The mixture was extracted with 0.2 ml of an ice-cold mixture of ethyl ether:methanol: 0.2M citric acid (30:4:1). The extract was subjected to thin-layer chromatography at -10° C. in a solvent system of petroleum ether:ethyl ether:acetic acid (15:85:0.1). The silica gel zones corresponding to authentic arachidonic acid and its metabolites were scraped into scintillation vials for counting. The enzyme activity was expressed in terms of the amount of arachidonic acid oxygenated for 3 minutes.\nTable 3 provides data for the inhibition of soluble 5-lipoxygenase in RBL-1 cell extract by racemic compound 202, as well as its enantiomers, compounds […], 234, and 236."}, "[2]": {"system": "5-lipoxygenase (ex vivo LTB4)", "test": "Ex vivo whole blood 5-lipoxygenase evaluation (ex vivo LTB4)", "format": "in vivo", "settings": "rat, 10 mg/kg po, 180'", "protocol": "Ex-vivo Mouse and Rat Whole Blood 5-lipoxygenase Evaluation\nCD-1 female mice, weighing 18-25 grams, and CD female rates, weighing 150-230 grams, were obtained from Charles River Labs. Compounds were dissolved in 0.5% DMSO in 0.9% NaCl for administration in mice (0.5 mg/ml) and in an alcohol Vehicle (2% benzyl alcohol, 1% ethanol, 40% PEG 300 10% propylene glycol, 47% of 5% dextrose plus 3.5% pluronic F-68 in DiH2 O) for use in rates (5 mg/ml). […] Heparinized whole blood (0.3 ml) was added into 1.5 ml Eppendorf centrifuge tub containing […] of 2 mM calcium ionophore A23187 (the final concentration of A23187 was […]). The sample was incubated for 30 minutes in a water bath of 37° C., and then centrifuged for 2 minutes. The plasma was diluted (×120) and assayed for LTB4 using EIA.\nTable 3 provides data for the ex-vivo mouse and rat whole blood 5-lipoxygenase values on administration of racemic compound 202, as well as its enantiomers, compounds 216, 217, 234, and 236."}, "[3]": {"settings": "cited from earlier work"}, "[4]": {"system": "platelets", "settings": "active concentration; cited from earlier work"}, "[5]": {"system": "PAF receptor", "settings": "cited from earlier work; for PAF receptor antagonism / inhibition of PAF binding: qualitative"}, "[6]": {"system": "5-lipoxygenase", "settings": "qualitative; cited from earlier work"}, "[7]": {"system": "PAF-induced rat cutaneous vascular permeability", "settings": "30 mg/kg body weight; orally active; cited from earlier work"}}, "data": [{"compound": "C[C@H](C#C[C@@H]1CC[C@@H](c2ccc(F)cc2)O1)N(O)C(N)=O", "values": [{"measurement": "IC50", "setting": "[1]", "value": 3.8, "unit": "µM"}]}, {"compound": "C[C@@H](C#C[C@@H]1CC[C@@H](c2ccc(F)cc2)O1)N(O)C(N)=O", "values": [{"measurement": "IC50", "setting": "[1]", "value": 3.51, "unit": "µM"}]}, {"compound": "C[C@H](C#C[C@H]1CC[C@H](c2ccc(F)cc2)O1)N(O)C(N)=O", "values": [{"measurement": "IC50", "setting": "[1]", "value": 3.1, "unit": "µM"}]}, {"compound": "C[C@@H](C#C[C@H]1CC[C@H](c2ccc(F)cc2)O1)N(O)C(N)=O", "values": [{"measurement": "IC50", "setting": "[1]", "value": 2, "unit": "µM"}]}, {"compound": "NC(=O)N(O)CCCCC1CCC(c2ccc(F)cc2)O1", "note": "(stereo not shown)", "values": [{"measurement": "ex vivo LTB4 % (inhibition), last sub-column", "setting": "[2]", "value": 83, "unit": "%"}, {"measurement": "IC50", "setting": "[1]", "value": 0.618, "unit": "µM"}]}, {"compound": "NC(=O)N(O)CCCC[C@@H]1CC[C@@H](c2ccc(F)cc2)O1", "values": [{"measurement": "IC50", "setting": "[1]", "value": 1.1, "unit": "µM"}]}, {"compound": "1-O-alkyl-2-acetyl-sn-glycerol-3-phosphorylcholine [PAF]", "values": [{"measurement": "plasma half life", "setting": "[3]", "value": "2 to 4", "unit": "min"}, {"measurement": "potency (active at)", "setting": "[4]", "value": "10^-12 to 10^-9 M"}]}, {"compound": "CCCCCCCCCCCCCCCCCCNC(=O)OCC(COP(=O)([O-])OCC[n+]1ccsc1)OC", "note": "(racemic) [CV-3988, rac-3-(N-n-octadecyl-carbamoyloxy-ω-methoxypropyl-2-thiazolioethyl phosphate]", "values": [{"measurement": "PAF receptor antagonism / inhibition of PAF binding", "setting": "[5]", "value": "PAF receptor antagonist properties"}]}, {"compound": "CC(C#C[C@@H]1CC[C@@H](c2ccc(F)cc2)O1)N(O)C(N)=O", "note": "(relative stereo)", "values": [{"measurement": "IC50", "setting": "[1]", "value": 2.8, "unit": "µM"}, {"measurement": "inhibition at 1.6 µM", "setting": "[1]; dose 1.6 uM, read-out: RBL % inh.", "value": 20, "unit": "%"}]}, {"compound": "CN(O)C(=O)NCCCO[C@@H]1CC[C@@H](c2ccc(F)cc2)O1", "note": "(relative stereo) [Compound 9, 2-(4-fluorophenyl)-5-[3-(N'-methyl-N'-hydroxyureidyl)propoxy] tetrahydrofuran]", "values": [{"measurement": "activity in 5-lipoxygenase assay", "setting": "[1]", "value": "showed activity in this assay"}]}, {"compound": "CN(O)C(=O)NCCCO[C@@H]1CC[C@H](c2ccc(F)cc2)O1", "note": "(relative stereo) [Compound 11, 2-(4-fluorophenyl)-5-[3-(N'-methyl-N'-hydroxyureidyl)propoxy] tetrahydrofuran]", "values": [{"measurement": "activity in 5-lipoxygenase assay", "setting": "[1]", "value": "showed activity in this assay"}]}, {"compound": "NC(=O)N(O)CCCO[C@@H]1CC[C@@H](c2ccc(F)cc2)O1", "note": "(relative stereo) [Compound 14, 2-(4-fluorophenyl)-5-(3-hydroxyureidylpropoxy) tetrahydrofuran]", "values": [{"measurement": "activity in 5-lipoxygenase assay", "setting": "[1]", "value": "showed activity in this assay"}]}, {"compound": "NC(=O)N(O)CCCO[C@@H]1CC[C@H](c2ccc(F)cc2)O1", "note": "(relative stereo) [Compound 15, 2-(4-fluorophenyl)-5-(3-hydroxyureidylpropoxy) tetrahydrofuran]", "values": [{"measurement": "activity in 5-lipoxygenase assay", "setting": "[1]", "value": "showed activity in this assay"}]}, {"compound": "COc1cc([C@H]2CC[C@H](c3cc(OC)c(OC)c(OC)c3)O2)cc(OC)c1OC", "note": "(relative stereo) [L-652,731, trans-2,5-bis-(3,4,5-trimethoxyphenyl) tetrahydrofuran]", "values": [{"measurement": "effect on 5-lipoxygenase", "setting": "[6]", "value": "no effect on the enzyme 5-lipoxygenase"}, {"measurement": "PAF receptor antagonism / inhibition of PAF binding", "setting": "[5]", "value": "inhibits the binding of tritiated PAF to PAF receptor sites"}, {"measurement": "relative potency, trans versus cis", "setting": "[5]; trans-L-652,731 vs cis-L-652,731", "value": "approximately 1000 times"}, {"measurement": "inhibition of PAF-induced cutaneous vascular permeability", "setting": "[7]", "value": "inhibit PAF-induced rat cutaneous vascular permeability"}]}, {"compound": "COc1cc([C@H]2CC[C@H](c3cc(OC)c(OC)c(OC)c3)S2)cc(OC)c1OC", "note": "(relative stereo) [L-653,150, trans-2,5-bis-(3,4,5-trimethoxyphenyl)tetrahydrothiophene]", "values": [{"measurement": "effect on 5-lipoxygenase", "setting": "[6]", "value": "moderate inhibitor of 5-lipoxygenase"}, {"measurement": "PAF receptor antagonism / inhibition of PAF binding", "setting": "[5]", "value": "potent PAF antagonist"}]}, {"compound": "CCCOc1c(OC)cc([C@@H]2CC[C@@H](c3cc(OC)c(OC)c(OC)c3)O2)cc1S(C)(=O)=O", "note": "(relative stereo) [L-659,989, trans-2-(3-methoxy-4-propoxyphenyl-5-methylsulfonyl)-5-(3,4,5-trimethoxyphenyl)tetrahydrofuran]", "values": [{"measurement": "PAF receptor antagonism / inhibition of PAF binding", "setting": "[5]", "value": "orally active, potent, competitive PAF receptor antagonist"}, {"measurement": "equilibrium inhibition constant relative to trans-L-652,731", "setting": "[5]; vs trans-L-652,731", "value": 10, "unit": "times"}]}, {"compound": "C=CCC1=C[C@@]2(OC)C(=CC1=O)O[C@H](c1ccc(OC)c(OC)c1)[C@H]2C", "note": "[kadsurenone]", "values": [{"measurement": "PAF receptor antagonism / inhibition of PAF binding", "setting": "[5]", "value": "potent, specific and competitive inhibitor of PAF activity at the receptor level"}]}]}
